Usually IC50 stands for the concentration that inhibits the measured activity by half.

Our source for the IC50 values is ChEMBL document CHEMBL3608278 (J Med Chem, 2015).

Assay [1] has as its target T1, Potassium voltage-gated channel subfamily A member 3 (Homo sapiens, UniProt P22001). Further details: species or system Blood.
In assay [2] the target is T1, Potassium voltage-gated channel subfamily A member 3. Put plainly: cell-based. Further details: species or system Blood.

T1 sequence (P22001 whole entry): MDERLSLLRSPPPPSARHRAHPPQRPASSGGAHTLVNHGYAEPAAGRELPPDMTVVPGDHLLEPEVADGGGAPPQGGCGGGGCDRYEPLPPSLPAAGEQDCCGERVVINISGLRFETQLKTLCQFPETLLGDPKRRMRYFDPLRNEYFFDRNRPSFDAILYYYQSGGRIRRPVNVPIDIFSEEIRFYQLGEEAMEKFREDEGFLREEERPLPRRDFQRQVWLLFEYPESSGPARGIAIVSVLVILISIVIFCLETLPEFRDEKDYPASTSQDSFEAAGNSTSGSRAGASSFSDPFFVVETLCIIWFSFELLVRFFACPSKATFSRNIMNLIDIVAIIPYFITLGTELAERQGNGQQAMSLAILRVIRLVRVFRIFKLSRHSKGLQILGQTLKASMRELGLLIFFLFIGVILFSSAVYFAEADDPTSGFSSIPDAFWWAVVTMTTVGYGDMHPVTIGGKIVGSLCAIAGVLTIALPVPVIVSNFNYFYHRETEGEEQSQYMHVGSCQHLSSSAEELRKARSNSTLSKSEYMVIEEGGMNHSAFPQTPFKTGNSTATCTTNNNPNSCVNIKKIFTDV

Consider `CC[C@H](C)[C@@H]1NC(=O)[C@@H](NC(=O)[C@H](CO)NC(=O)[C@@H](N)CCCNC(=N)N)CSSC[C@@H](C(=O)O)NC(=O)[C@H](CCC(=O)O)NC(=O)CNC(=O)[C@@H]2CSSC[C@@H]3NC(=O)[C@H](CCC(N)=O)NC(=O)[C@H](Cc4ccccc4)NC(=O)[C@H](C)NC(=O)[C@H]([C@@H](C)O)NC(=O)[C@H](CSSC[C@H](NC(=O)[C@H](Cc4ccccc4)NC(=O)[C@H](CO)NC(=O)[C@H](CC(C)C)NC(=O)[C@H](CCCNC(=N)N)NC(=O)[C@H](Cc4ccc(O)cc4)NC(=O)[C@H](CCCCN)NC(=O)[C@H](CCSC)NC(=O)[C@H](CO)NC(=O)[C@H](Cc4cnc[nH]4)NC(=O)[C@H](CCCCN)NC3=O)C(=O)N[C@@H](CCCNC(=N)N)C(=O)N[C@@H](CCCCN)C(=O)N[C@@H]([C@@H](C)O)C(=O)N2)NC(=O)[C@H](CCCNC(=N)N)NC(=O)[C@H](CO)NC(=O)[C@H](CCCCN)NC(=O)[C@@H]2CCCN2C(=O)[C@H]([C@@H](C)CC)NC(=O)[C@H]([C@@H](C)O)NC(=O)[C@H](CC(=O)O)NC1=O`, for which the half-maximal inhibitory concentration (IC50) in assay [1] came to 0.124 nM.

On to `CC[C@H](C)[C@@H]1NC(=O)[C@@H](NC(=O)[C@H](CO)NC(=O)[C@@H](N)CCCNC(=N)N)CSSC[C@@H](C(=O)O)NC(=O)[C@H]([C@@H](C)O)NC(=O)CNC(=O)[C@@H]2CSSC[C@@H]3NC(=O)[C@H](CCC(N)=O)NC(=O)[C@H](Cc4ccccc4)NC(=O)[C@H](C)NC(=O)[C@H]([C@@H](C)O)NC(=O)[C@H](CSSC[C@H](NC(=O)[C@H](Cc4ccccc4)NC(=O)[C@H](CO)NC(=O)[C@H](CC(C)C)NC(=O)[C@H](C)NC(=O)[C@H](Cc4ccc(O)cc4)NC(=O)[C@H](CCCCN)NC(=O)[C@H](CCSC)NC(=O)[C@H](CO)NC(=O)[C@H](Cc4cnc[nH]4)NC(=O)[C@H](CCCCN)NC3=O)C(=O)N[C@@H](CCCNC(=N)N)C(=O)N[C@@H](CCCCN)C(=O)N[C@@H]([C@@H](C)O)C(=O)N2)NC(=O)[C@H](CCCNC(=N)N)NC(=O)[C@H](CO)NC(=O)[C@H](CCCCN)NC(=O)[C@@H]2CCCN2C(=O)[C@H]([C@@H](C)CC)NC(=O)[C@H]([C@@H](C)O)NC(=O)[C@H](CC(=O)O)NC1=O`, for which the IC50 in assay [2] came out at 0.045 nM; in assay [1], 0.186 nM.

Regarding `CC[C@H](C)[C@@H]1NC(=O)[C@@H](NC(=O)[C@H](CO)NC(=O)[C@@H](N)CCCNC(=N)N)CSSC[C@@H](C(=O)O)NC(=O)[C@H]([C@@H](C)O)NC(=O)CNC(=O)[C@@H]2CSSC[C@@H]3NC(=O)[C@H](CCC(N)=O)NC(=O)[C@H](Cc4ccccc4)NC(=O)[C@H](C)NC(=O)[C@H]([C@@H](C)O)NC(=O)[C@H](CSSC[C@H](NC(=O)[C@H](Cc4ccccc4)NC(=O)[C@H](CO)NC(=O)[C@H](CC(C)C)NC(=O)[C@H](CCCNC(=N)N)NC(=O)[C@H](Cc4ccc(O)cc4)NC(=O)[C@H](CCCCN)NC(=O)[C@H](CCSC)NC(=O)[C@H](CO)NC(=O)[C@H](Cc4cnc[nH]4)NC(=O)[C@H](CCCCN)NC3=O)C(=O)N[C@@H](CCCNC(=N)N)C(=O)N[C@@H](CCCCN)C(=O)N[C@@H]([C@@H](C)O)C(=O)N2)NC(=O)[C@H](CCCNC(=N)N)NC(=O)[C@H](CO)NC(=O)[C@H](CCCCN)NC(=O)[C@H](CCC(=O)O)NC(=O)[C@H]([C@@H](C)CC)NC(=O)[C@H]([C@@H](C)O)NC(=O)[C@H](CC(=O)O)NC1=O`, the concentration for half-maximal inhibition (IC50) in assay [1] was 0.239 nM.
